# Test results published in patent publication US7879838B2, “Heteroaryl substituted pyrazinyl-piperazine-piperidines with CXCR3 antagonist activity” (Schering Corporation, priority 2005, dated 2011).
# Target: T1, Human CXCR3 (N-delta 4) (Homo sapiens, UniProt P49682)
# T1 construct: CD8 leader (N); Flag tag; expressed in transfected cells; membranes prepared
# T1 sequence (P49682 5-368 limits assumed): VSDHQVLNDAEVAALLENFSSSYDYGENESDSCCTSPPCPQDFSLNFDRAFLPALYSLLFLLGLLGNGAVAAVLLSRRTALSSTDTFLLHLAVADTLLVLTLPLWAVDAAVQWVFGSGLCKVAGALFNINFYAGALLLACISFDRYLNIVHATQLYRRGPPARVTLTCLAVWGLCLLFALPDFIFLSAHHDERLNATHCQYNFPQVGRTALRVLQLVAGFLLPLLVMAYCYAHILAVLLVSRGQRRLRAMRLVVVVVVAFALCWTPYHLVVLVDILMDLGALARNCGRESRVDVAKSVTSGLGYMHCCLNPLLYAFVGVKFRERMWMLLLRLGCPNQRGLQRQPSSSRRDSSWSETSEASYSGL
# Assay: Human CXCR3 (N-delta 4) scintillation proximity assay (SPA), [125I] IP-10 binding to Ba/F3-hCXCR3 membranes
# Details: IC50 rating; 25 pM [125I] IP-10, membranes of Ba/F3 cells expressing human CXCR3 (N-delta 4)
# Method in brief: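 Membranes from Ba/F3 pro-B cells stably expressing Flag-tagged hCXCR3 (N-delta 4), 2 μg per point, prebound 1 hr to WGA SPA beads in HEPES buffer with CaCl2, MgCl2, NaCl, 1.0% BSA. Competition with 25 pM [125I] IP-10 and titrated compounds, 3 hr at room temperature; bound radioligand counted; […].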
row,IC50,SMILES
1,> 100 nM,CC[C@H]1CN(c2nc(N)c(C(N)=O)nc2Cl)CCN1C1CCN(C(=O)c2ncc(C)nc2N)CC1 [compound 115]
2,< 25 nM,CC[C@H]1CN(c2ncc(C(=O)NCCO)nc2Cl)CCN1C1CCN(C(=O)c2ccc(Cl)nc2N)CC1 [compound 125]
3,25 to 100 nM,CC[C@H]1CN(c2ncc(C(N)=O)nc2C)CCN1C1CCN(C(=O)c2ccc(C(F)(F)F)nc2N)CC1 [compound 165]
4,> 100 nM,CC[C@H]1CN(c2nc(N)c(C(=O)NCCO)nc2Cl)CCN1C1CCN(C2CCOc3cc(C#N)ccc32)CC1 (some centres unmarked) [compound 148]
5,25 to 100 nM,CC[C@H]1CN(c2nc(N)c(C(=O)NNC(C)=O)nc2Cl)CCN1C1CCN(C(=O)c2ccc(Cl)nc2N)CC1 [compound 134]
6,< 25 nM,CC[C@H]1CN(c2nc(N)c(C(=O)NC3CC3)nc2C)[C@H](C)CN1C1CCN(C(=O)c2ccc(Cl)nc2N)CC1 [compound 175]
7,> 100 nM,CC[C@H]1CN(c2nc(N)c(C(=O)N(C)OC)nc2Cl)CCN1C1CCN(C(=O)c2ccc(Cl)nc2N)CC1 [compound 137]

# Continued, compound first:
row,SMILES,IC50
1,CC[C@H]1CN(c2nc(N)c(C(=O)NC3COCC3O)nc2Cl)CCN1C1CCN(C(=O)c2ccc(Cl)nc2N)CC1 (some centres unmarked) [compound 61],25 to 100 nM
2,CC[C@H]1CN(c2nc(N)c(C(=O)NC(=N)NC(C)=O)nc2Cl)CCN1C1CCN(C(=O)c2ccc(Cl)nc2N)CC1 [compound 14],< 25 nM
3,CC[C@H]1CN(c2nc(N)c(C(=O)NC(=N)N)nc2Cl)CCN1C1CCN(C(=O)c2ccc(Cl)nc2N)CC1 [compound 3],< 25 nM
4,CC[C@H]1CN(c2nc(N)c(C(=O)NC(=N)NC)nc2Cl)CCN1C1CCN(C(=O)c2ccc(Cl)nc2N)CC1 [Compound No. 1],< 25 nM
5,CCOC(=O)NCc1nc(Cl)c(N2CCN(C3CCN(C(=O)c4ccc(Cl)nc4N)CC3)[C@@H](CC)C2)nc1N [compound 80],> 100 nM
6,CC[C@H]1CN(c2nc(N)c(C(=O)NCCS(C)(=O)=O)nc2Cl)CCN1C1CCN(Cc2ccc(Cl)nc2N)CC1 [compound 53],25 to 100 nM
7,CC[C@H]1CN(c2nc(N)c(C(N)=O)nc2Cl)CCN1C1CCN(C(=O)c2ccc(-n3cncn3)nc2)CC1 [compound 107],> 100 nM
8,CC[C@H]1CN(c2nc(N)c(C(=O)NC)nc2Cl)CCN1C1CCN(C(=O)c2ccc(Cl)nc2Cl)CC1 [compound 43],< 25 nM
9,CC[C@H]1CN(c2nc(N)c(C(=O)NCC(C)O)nc2Cl)CCN1C1CCN(C(=O)c2ccc(Cl)nc2N)CC1 (some centres unmarked) [compound 25],< 25 nM
10,CC[C@H]1CN(c2nc(N)c(C(=O)NCCO)nc2Cl)CCN1C1CCN(C(=O)c2cnc(Cl)nc2C(F)(F)F)CC1 [compound 79],> 100 nM
11,CC[C@H]1CN(c2nc(N)c(C(=O)N[C@@H]3C[C@@H]3F)nc2Cl)CCN1C1CCN(C(=O)c2ccc(Cl)nc2N)CC1 [compound 37],< 25 nM
12,CC[C@H]1CN(c2nc(N)c(C(=O)NC)nc2Cl)CCN1C1CCN(C(=O)c2cc(F)c(Cl)nc2N)CC1 [compound 13],< 25 nM
13,CC[C@H]1CN(c2nc(N)c(C(=O)Nc3ncc[nH]3)nc2Cl)CCN1C1CCN(C(=O)c2ccc(Cl)nc2N)CC1 [compound 28],< 25 nM
14,CC[C@H]1CN(c2nc(N)c(C(N)=O)nc2Cl)CCN1C1CCN(CC2COc3ccccc3O2)CC1 (some centres unmarked) [compound 113],> 100 nM
15,CC[C@H]1CN(c2nc(N)c(C(=O)Nc3cc(O)[nH]n3)nc2Cl)CCN1C1CCN(C(=O)c2ccc(Cl)nc2N)CC1 [compound 100],> 100 nM

# Same assay, conditions: human CXCR3 (N-delta 4) SPA
row,IC50,SMILES
1,0.7 nM,CC[C@H]1CN(c2nc(N)c(C(=O)NC(=N)NC)nc2Cl)CCN1C1CCN(C(=O)c2ccc(Cl)nc2N)CC1 [Compound No. 1]
